Results as given in ChEMBL document CHEMBL5154813 (Eur J Med Chem, 2022).
Calls of active or inactive are those of the source. The rule behind the calls is not given here.

How the values were obtained:
[1] = biological target: T1, Peroxisome proliferator-activated receptor gamma (Homo sapiens, UniProt P37231); experiment: Agonist activity at yeast Gal4-fused human PPARgamma transfected in human HepG2 cells assessed as transactivation by measuring beta-galactosidase activity incubated for 20 hrs by luminometry; format: cell-based
T1 sequence (P37231 whole entry): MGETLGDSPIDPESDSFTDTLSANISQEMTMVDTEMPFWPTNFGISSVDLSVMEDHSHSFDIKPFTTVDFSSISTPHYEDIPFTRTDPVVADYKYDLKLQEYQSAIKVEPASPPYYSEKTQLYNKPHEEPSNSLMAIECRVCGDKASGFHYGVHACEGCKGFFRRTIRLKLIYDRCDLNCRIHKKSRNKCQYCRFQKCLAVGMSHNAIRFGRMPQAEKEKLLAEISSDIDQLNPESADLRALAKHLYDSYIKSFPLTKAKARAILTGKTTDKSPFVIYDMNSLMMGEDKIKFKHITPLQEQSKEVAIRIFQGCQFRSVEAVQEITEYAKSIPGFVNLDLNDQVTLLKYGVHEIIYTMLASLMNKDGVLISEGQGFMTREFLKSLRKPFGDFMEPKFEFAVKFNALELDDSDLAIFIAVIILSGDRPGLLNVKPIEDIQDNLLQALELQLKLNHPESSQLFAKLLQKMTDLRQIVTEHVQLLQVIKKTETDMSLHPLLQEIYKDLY

[2] = biological target: T2, Peroxisome proliferator-activated receptor alpha (Homo sapiens, UniProt Q07869); experiment: Agonist activity at yeast Gal4-fused human PPARalpha LBD transfected in human HepG2 cells assessed as transactivation by measuring beta-galactosidase activity incubated for 20 hrs by luminometry; format: cell-based
T2 sequence (Q07869 whole entry): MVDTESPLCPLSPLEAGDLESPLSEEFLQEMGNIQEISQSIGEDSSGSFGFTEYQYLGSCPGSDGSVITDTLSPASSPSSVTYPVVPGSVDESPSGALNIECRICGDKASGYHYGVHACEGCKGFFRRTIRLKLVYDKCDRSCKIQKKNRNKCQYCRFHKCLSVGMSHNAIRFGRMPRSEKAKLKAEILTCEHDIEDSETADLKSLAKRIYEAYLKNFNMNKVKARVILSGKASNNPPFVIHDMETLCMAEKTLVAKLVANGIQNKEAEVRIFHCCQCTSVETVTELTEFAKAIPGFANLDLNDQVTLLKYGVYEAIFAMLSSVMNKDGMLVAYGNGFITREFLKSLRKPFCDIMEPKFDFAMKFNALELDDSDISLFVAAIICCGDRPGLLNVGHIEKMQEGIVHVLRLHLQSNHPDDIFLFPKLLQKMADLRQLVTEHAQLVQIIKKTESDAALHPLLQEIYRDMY

[3] = biological target: T3, Peroxisome proliferator-activated receptor alpha (Homo sapiens) (UniProt Q07869); experiment: Agonist activity at yeast Gal4-fused human PPARalpha LBD transfected in human HepG2 cells assessed as transactivation by measuring beta-galactosidase activity incubated for 20 hrs by luminometry relative to control; format: cell-based
T3 sequence (whole entry): T2 sequence (Q07869 whole entry)

HepaRG [4] = experiment: Reduction of lipid accumulation in oleic acid-induced steatosis in human HepaRG cells at 10 uM treated for 2 weeks with media replenishment along with compound and inducer for every 2 days by spectrophotometry; format: functional, cell-based
HepaRG [5] = experiment: Reduction of lipid accumulation in oleic acid-induced steatosis in human HepaRG cells at 10 uM treated for 2 weeks with media replenishment along with compound and inducer for every 2 days by Oil Red O staining based microscopy; format: functional, cell-based
[6] = biological target: T4, Peroxisome proliferator-activated receptor delta (Homo sapiens, UniProt Q03181); experiment: Agonist activity at yeast Gal4-fused human PPARdelta transfected in human HepG2 cells assessed as transactivation by measuring beta-galactosidase activity incubated for 20 hrs by luminometry; format: cell-based
T4 sequence (Q03181 whole entry): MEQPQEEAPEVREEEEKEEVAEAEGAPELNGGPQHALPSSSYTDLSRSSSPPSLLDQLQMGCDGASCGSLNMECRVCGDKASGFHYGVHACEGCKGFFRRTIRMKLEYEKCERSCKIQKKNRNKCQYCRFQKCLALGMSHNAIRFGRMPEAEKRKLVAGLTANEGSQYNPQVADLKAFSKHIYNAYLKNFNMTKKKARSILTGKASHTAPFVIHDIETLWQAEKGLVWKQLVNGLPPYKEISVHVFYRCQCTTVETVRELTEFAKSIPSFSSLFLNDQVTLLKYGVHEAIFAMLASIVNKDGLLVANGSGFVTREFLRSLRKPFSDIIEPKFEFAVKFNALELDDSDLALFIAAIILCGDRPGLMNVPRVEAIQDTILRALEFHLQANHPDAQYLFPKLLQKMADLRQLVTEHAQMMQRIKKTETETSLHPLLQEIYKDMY

[7] = biological target: T5, Peroxisome proliferator-activated receptor (Homo sapiens) (UniProt P37231+Q07869+Q03181); experiment: Agonist activity at PPAR in oleic acid-induced steatosis in human HepaRG cells assessed as increase in FABP1 mRNA levels at 100 uM treated for 24 hrs by RT-qPCR analysis; format: cell-based; conditions: filed as agonist
[8] = biological target: T5, Peroxisome proliferator-activated receptor (Homo sapiens); experiment: Agonist activity at PPAR in oleic acid-induced steatosis in human HepaRG cells assessed as increase in HMGCS2 mRNA levels at 100 uM treated for 2 weeks with media replenishment along with compound and inducer for every 2 days by RT-qPCR analysis; format: cell-based; conditions: filed as agonist
HepaRG [9] = experiment: Reduction of lipid accumulation in oleic acid-induced steatosis in human HepaRG cells at 100 uM treated for 2 weeks with media replenishment along with compound and inducer for every 2 days by Oil Red O staining based microscopy; format: functional, cell-based
C2C12 [10] = experiment: Induction of 2-NBD-glucose uptake in mouse C2C12 cells at 25 uM incubated in starvation medium with replacement of fresh medium for every 24 hrs for 96 hrs followed by insulin stimulation for 30 mins followed by 2-NBD-glucose treatment for 3 hrs by flow cytometric analysis; format: functional, cell-based; conditions: time 99.5 hrs
[11] = biological target: T5, Peroxisome proliferator-activated receptor (Homo sapiens); experiment: Agonist activity at PPAR in oleic acid-induced steatosis in human HepaRG cells assessed as increase in FABP1 mRNA levels at 100 uM treated for 2 weeks with media replenishment along with compound and inducer for every 2 days by RT-qPCR analysis; format: cell-based; conditions: filed as agonist
HepaRG [12] = experiment: Reduction of lipid accumulation in oleic acid-induced steatosis in human HepaRG cells at 100 uM treated for 24 hrs by spectrophotometry; format: functional, cell-based
HepaRG [13] = experiment: Reduction of lipid accumulation in oleic acid-induced steatosis in human HepaRG cells at 100 uM treated for 2 weeks with media replenishment along with compound and inducer for every 2 days by spectrophotometry; format: functional, cell-based
[14] = Permeability of compound in human Caco-2 cells; format: ADME, cell-based
[15] = biological target: T5, Peroxisome proliferator-activated receptor (Homo sapiens); experiment: Agonist activity at PPAR in oleic acid-induced steatosis in human HepaRG cells assessed as increase in FGF21 mRNA levels at 100 uM treated for 2 weeks with media replenishment along with compound and inducer for every 2 days by RT-qPCR analysis; format: cell-based; conditions: filed as agonist
[16] = biological target: T5, Peroxisome proliferator-activated receptor (Homo sapiens); experiment: Agonist activity at PPAR in oleic acid-induced steatosis in human HepaRG cells assessed as increase in PDK4 mRNA levels at 100 uM treated for 24 hrs by RT-qPCR analysis; format: cell-based; conditions: filed as agonist
[17] = biological target: T5, Peroxisome proliferator-activated receptor (Homo sapiens); experiment: Agonist activity at PPAR in oleic acid-induced steatosis in human HepaRG cells assessed as increase in HMGCS2 mRNA levels at 100 uM treated for 24 hrs by RT-qPCR analysis; format: cell-based; conditions: filed as agonist
C2C12 [18] = experiment: Induction of 2-NBD-glucose uptake in mouse C2C12 cells at 25 uM incubated in starvation medium with replacement of fresh medium for every 24 hrs for 96 hrs followed by 2-NBD-glucose treatment for 3 hrs by flow cytometric analysis; format: functional, cell-based; conditions: time 99.0 hrs
HepaRG [19] = experiment: Reduction of lipid accumulation in oleic acid-induced steatosis in human HepaRG cells at 100 uM treated for 24 hrs by Oil Red O staining based microscopy; format: functional, cell-based
[20] = biological target: T5, Peroxisome proliferator-activated receptor (Homo sapiens); experiment: Agonist activity at PPAR in oleic acid-induced steatosis in human HepaRG cells assessed as increase in FGF21 mRNA levels at 100 uM treated for 24 hrs by RT-qPCR analysis; format: cell-based; conditions: filed as agonist
[21] = biological target: T5, Peroxisome proliferator-activated receptor (Homo sapiens); experiment: Agonist activity at PPAR in oleic acid-induced steatosis in human HepaRG cells assessed as increase in liver CPT1a mRNA levels at 100 uM treated for 2 weeks with media replenishment along with compound and inducer for every 2 days by RT-qPCR analysis; format: cell-based; conditions: filed as agonist
HepaRG [22] = experiment: Reduction of lipid accumulation in oleic acid-induced steatosis in human HepaRG cells at 250 uM treated for 2 weeks with media replenishment along with compound and inducer for every 2 days by spectrophotometry; format: functional, cell-based
HepaRG [23] = experiment: Reduction of lipid accumulation in oleic acid-induced steatosis in human HepaRG cells at 250 uM treated for 2 weeks with media replenishment along with compound and inducer for every 2 days by Oil Red O staining based microscopy; format: functional, cell-based

Row | Compound | EC50 [1] [µM] | EC50 [2] [µM] | Emax ([3]; filed as agonist) [%] | other results
1 | O=C(NC(CSCc1ccc(C(=O)c2ccccc2)cc1)C(=O)O)OCc1ccccc1 (stereo not given) | 7.9 | 1.9 | 90 | 
2 | O=C(Cc1ccccc1)NC(CSCc1ccccc1)C(=O)O (stereo not given) | 10.9 | 2.55 | 148 | 
3 | CN(CCOc1ccc(CC2SC(=O)NC2=O)cc1)c1ccccn1 (stereo not given) |  |  |  | Activity (HepaRG [4]): Active; Activity (HepaRG [5]): Active
4 | CC(C)(C)OC(=O)NC(CSCc1ccc(C(=O)c2ccc(C(F)(F)F)cc2)cc1)C(=O)O (stereo not given) | 2.2 | 0.25 | 77 | 
5 | CC(C)(C)OC(=O)NC(CSCc1ccc(C(=O)c2ccc([N+](=O)[O-])cc2)cc1)C(=O)O (stereo not given) | 12.8 | 4.8 | 103 | 
6 | Cc1ccc(C(=O)c2ccc(CSCC(NC(=O)OC(C)(C)C)C(=O)O)cc2)cc1 (stereo not given) | 4.6 | 0.94 | 89 | 
7 | CC(C)(C)OC(=O)NC(CSCc1ccc(Cc2ccccc2)cc1)C(=O)O (stereo not given) | 3.4 | 0.58 | 64 | 
8 | CC(C)(C)OC(=O)NC(COCc1ccc(-c2ccccc2)cc1)C(=O)O (stereo not given) | 13 | 7.2 | 100 | 
9 | O=C(NC(CSCc1ccc(-c2ccc(Cl)cc2)cc1)C(=O)O)OCc1ccccc1 (stereo not given) |  | 0.135 | 138 | 
10 | O=C(NC(CSCc1ccc(C(=O)c2ccccc2)cc1)C(=O)O)c1ccccc1 (stereo not given) |  |  |  | Emax [3]: 21%
11 | CC(C)(C)OC(=O)NC(CSCc1ccc(/C=C/C(=O)c2ccccc2)cc1)C(=O)O (stereo not given) | 10.2 | 0.8 | 94 | 
12 | CC(C)(C)OC(=O)NC(COCc1ccc(C(=O)c2ccccc2)cc1)C(=O)O (stereo not given) | 20 | 12.1 | 49 | 
13 | CC(C)(C)OC(=O)NC(CSCc1ccc(-c2ccccc2)cc1)C(=O)O (stereo not given) | 3.9 | 0.71 | 108 | 
14 | CC(C)OC(=O)C(C)(C)Oc1ccc(C(=O)c2ccc(Cl)cc2)cc1 |  |  |  | Activity (HepaRG [22]): Active; Activity (HepaRG [23]): Active
15 | CC(C)(C)OC(=O)NC(COCc1ccc(Cc2ccccc2)cc1)C(=O)O (stereo not given) |  | 10 | 52 | 

The remaining compounds from weak to strong by EC50 [2], led by results:

Row | EC50 [1] [µM] | EC50 [2] [µM] | Emax ([3]; filed as agonist) [%] | Compound | other results
16 |  | 9.1 | 48 | CC(SCc1ccccc1)C(NC(=O)c1ccccc1)C(=O)O (stereo not given) | 
17 | 10.3 | 1.6 | 83 | CC(C)(C)OC(=O)NC(CSCc1ccc(C(=O)c2ccccc2)cc1)C(=O)O (stereo not given) | EC50 [6]: 37.1 µM
18 | 8.4 | 1.6 | 108 | CC(C)(C)OC(=O)N[C@@H](CSCc1ccc(C(=O)c2ccccc2)cc1)C(=O)O | Activity [7]: Active; Activity [8]: Active; Activity (HepaRG [9]): Active; Activity (C2C12 [10]): Active; Activity [11]: Active; Activity (HepaRG [12]): Active; Activity (HepaRG [13]): Active; permeability [14]: Permeable; Activity [15]: Active; Activity [16]: Active; Activity [17]: Active; Activity (C2C12 [18]): Active; Activity (HepaRG [19]): Active; EC50 [6]: 28 µM; Activity [20]: Active; Activity [21]: Active
19 | 25.7 | 1.45 | 118 | CC(C)(C)OC(=O)NC(CSCc1ccccc1)C(=O)O (stereo not given) | 
20 | 7.5 | 0.38 | 99 | COc1ccc(C(=O)c2ccc(CSCC(NC(=O)OC(C)(C)C)C(=O)O)cc2)cc1 (stereo not given) | 
21 | 3.2 | 0.37 | 95 | CC(C)(C)OC(=O)NC(CSCc1ccc(C(=O)c2ccc(Cl)cc2)cc1)C(=O)O (stereo not given) | 
22 |  | 0.016 | 165 | O=C(NC(CSCc1ccc(Cc2ccc(Cl)cc2)cc1)C(=O)O)OCc1ccccc1 (stereo not given) | 
